# From US6613323B2 (priority 2000, dated 2003)
# Test system: Magnaporthe grisea
# Format: cell-based
structure (smiles),measurement,setting,value
"OCCCCCCCCCCCCCCCCO [1,16-hexadecanediol]",effectiveness in inducing appressorium formation compared with cAMP,in the presence of recombinant PepEST,much more effective than cAMP
same,reversal of the inhibition of appressorium formation by the recombinant protein,"spores treated in the presence of recombinant PepEST, cAMP 10 mM, 1,16-hexadecanediol 0.01 mM",reversible
